In patent publication US20080194732A1, “Optically transparent polymer with antibiofouling properties” (priority 2007, published 2008):

What was measured:
[1] = Decomposition point temperature by thermal gravimetric analysis; assay type: physicochemical
Method: The decomposition point temperature, or the temperature at which a material burns or decomposes, of the antifoulants must be above the processing temperature of the polymer. As determined by thermal gravimetric analysis, the decomposition point temperatures are 210° C. for capsaicin, 208° C. for Diuron, and 196° C. for Irgarol® 1051. The processing temperatures for melt extrusion are: for PMMA, 125° C.; for CBDO terephthalates (Cycloshield®), 130° C., and for polycarbonate, 190° C. It is expected that the antibiofoulants will be entrained in the polymer matrices. This entrainment is a key to the antifouling properties of the coverglasses or windows as it is the chemical nature of the antibiofoulants that provides the antifouling properties. In a typical matrix with entrained compounds there will always be some of these compounds exposed at the surface. Further, depending on the nature of the matrix, there will also be some diffusion rate of the compounds throughout the material.

[2] = Leaching rate of algaecides from PMMA substrates in water, by UV spectroscopy; assay type: physicochemical; conditions: for leach rate: deionized water, 35 days; for leaching into test tanks: after five months, up to the limit of the spectrometer
Method: The effective lifetimes of the antifoulant-containing coverglass materials were tested by studying the leaching rate of the algaecides from PMMA substrates in water. The UV absorption bands of Diuron (at 254 nm) and Irgarol® (at 234 nm) were used to detect their presence in aqueous solutions. To study the leaching rate, duplicate samples of the highest concentration of algaecide in PMMA (4% by weight for Diuron and 0.5% for Irgarol®; three samples each) were placed in separate closed containers of ultra-pure deionized water (18 MΩ purity). After 35 days, the concentration of algaecide that had leached into the water was determined by UV spectroscopy using a standard Beer-Lambert law relationship:
Where A is the absorbance of the compound, ε is the extinction coefficient associated with the compound, l is the cell path length, and C is the concentration of the compound. By establishing a suitable set of calibration curves, ε can be calculated from empirical results. A set of calibration curves for both Diuron and Irgarol® was established from 10^−3 M to 10^−7 M in aqueous solution. A Mineral Light Short Wave UV source was used to provide the input light, while the absorption of the samples was collected with the Ocean Optics S2000 previously discussed. Aqueous samples were placed into closed quartz cuvettes for analysis. For the UV measurements the Ocean Optics spectrometer was equipped with a UV transmissive fiber optic cable and spectra collected from 200 nm to 575 nm. Absorbance was measured at the previously mentioned values. A reference sample of ultra-pure deionized water was used for this study.
The study determined that the lower limit of the spectrometer was approximately 10^−5 M concentration for these algaecides. […] That compares favorably to the reported leach rate of 4.04 μg cm^−2 days^−1 reported for leaching of Irgarol® from marine paints.

[3] = tested on: Chlorella capsulata; assay: Algae growth on antifoulant-loaded PMMA samples suspended 35 days in a salt water aquarium, read by optical transmission; assay type: cell-based; conditions: 35 days in algae tank; for effect on algae growth: antifoulant in solvent-cast PMMA sheet
Method: To test the antifoulant properties of the capsaicin-loaded PMMA and the mixtures of algaecides and polymers, a marine environment was established. Tests were performed in a salt water environment as opposed to a freshwater environment due to the aggressive growth of salt water plants and animals. The supposition is that if the antifoulant-doped coverglass works in a salt water environment, it will work in a fresh water environment. Using a standard 5-gallon aquarium, the salt water environment was set up using a commercially available sea salt solution (INSTANT OCEAN®). The solution was prepared to have a specific gravity of 1.020-1.023, a pH of ˜8.3, and a water temperature of about 27° C. A small aliquot of Chlorella capsulata (a known aggressive biofouling algae) was obtained from the UTEX Culture Collection of Algae and grown in the aquarium. Growth of the algae was further enhanced using an algae growth promoter (KENT PRO-CULTURE). After four weeks of growth, a dense algae growth was present in the aquarium.
PMMA/capsaicin samples of varying capsaicin concentration were prepared as previously described. The samples to be tested were cut into 25×25 mm squares and suspended in the aquarium. To ensure that no location-dependent effects were incorporated into the study, the samples were rotated every few days. The aquarium lights and air system were left running at all times. The samples were left in place for 35 days.
After 35 days, the samples were removed from the tank and rinsed carefully with deionized water to remove any adhering salts. The algae coated samples were then tested for their optical transmission properties using the Ocean Optics SD2000 UV-Vis spectrometer. To properly hold and test the samples, samples wetted with a couple of drops of deionized water were placed in between two standard 1″×3″ microscope slides. […] In fact, algae grew better on the samples with a higher concentration of capsaicin.
Algae growth studies similar to that conducted for the capsaicin-loaded PMMA were then conducted for the Diuron/PMMA and Irgarol®/PMMA samples. […]

[4] = leaching from marine paints, reported value; cited from earlier work

| Structure (SMILES) | decomposition point temperature [1] [°C] | leach rate ([2]; 4% by weight Diuron in PMMA, no absorption at 254 nm) | leaching into test tanks [2] | effect on algae growth [3] | loss of visible transmission after algae growth ([3]; PMMA/capsaicin samples of varying capsaicin concentration) | leach rate ([2]; 0.5% Irgarol in PMMA, no absorption at 234 nm) [μg cm^−2 day^−1] | reported leach rate from marine paints [4] [μg cm^−2 days^−1] |
| --- | --- | --- | --- | --- | --- | --- | --- |
| CN(C)C(=O)Nc1ccc(Cl)c(Cl)c1 [Diuron, 3-(3,4-dichlorophenyl)-1,1-dimethylurea] | 208 | below 1.67 μg cm^−2 days^−1 | no evidence was found | no sign of algae growth | – | – | – |
| COc1cc(CNC(=O)CCCC/C=C/C(C)C)ccc1O [capsaicin] | 210 | – | – | no effect in decreasing algae growth | the greater the concentration of capsaicin, the greater was the loss of transmission | – | – |
| CSc1nc(NC2CC2)nc(NC(C)(C)C)n1 [Irgarol®, N-(tert-butyl)-N′-cyclopropyl-6-(methylthio)-1,3,5-triazine-2,4-diamine] | 196 | – | no evidence was found | – | – | < 1.81 | 4.04 |
